Source: patent US20240100027A1, “INHIBITION OF PROSTAGLANDIN DEGRADING ENZYME 15-PGDH TO IMPROVE JOINT STRUCTURE AND FUNCTION” (The Board of Trustees of the Leland Stanford Junior …, priority 2020, published 2024)

Tests used:
PGE2 levels = conditions: in vivo, bone marrow, colon, lung and liver, cited from earlier work
knee joints of aged mice = experiment: Systemic i.p. treatment of aged mice: knee joint Safranin O histology and OARSI scoring; type: in vivo, mice C57BL/6; conditions: 5 mg/kg i.p. daily for 1 month
Protocol: Mice handling. All experiments and protocols were performed in accordance with the institutional guidelines of Stanford University and Administrative Panel on Laboratory Animal Care (APLAC). Aged (24-28 mo.) mice C57BL/6 were obtained from the US National Institute on Aging (NIA) aged colony.
Histology on mouse joints and human cartilage explants. Mouse joints were fixed in 4% paraformaldehyde overnight, dehydrated in ethanol and embedded in paraffin. Sagittal Sections (5 μm) of the mouse joints were cut by the Histoserv, Inc (Germantown, MD). Cartilage histology was performed by Safranin O (Saf O) staining as previously reported (Smeriglio et al., 2020, Sci Transi. Med. 12:eaax2332). Joints were assessed through blinded grading with the OARSI scoring system. Briefly, sections of mouse joints were stained with Safranin O, and cartilage degeneration was evaluated by assigning numbers 0 to 4 for increasing depth of cartilage degeneration (OARSI scoring system). For the summit scores, five regions were summed.
SW was previously extensively characterized as a specific inhibitor of 15-PGDH in vitro (ki of 0.1 nM).

[1] = test system: human OA cartilage explants; experiment: Human OA cartilage explants: DMMB assay for sGAG; type: cell-based; conditions: SW 10 uM, 7 days, vs vehicle
Source text: Human cartilage tissue collection and treatment. Human cartilage samples were harvested from the surgical knee tissue discards of patients (n>5, age ranging from 55-75 years) undergoing total knee arthroplasty according to approved human subjects institutional review board protocols at Stanford University. Informed, written consent was given by the patients prior to the study. Cylindrical explants (4 mm diameter, 2-4 mm thickness) were extracted from the cartilage samples using standard biopsy punches (Integra, NJ. USA). […]
1,9-dimethylmethylene Blue (DMMB) and Pico-green Assays. […] Briefly, 20 μL sample was mixed with 200 μL DMMB solution (16 mg DMMB dye dissolved in an aqueous solution of 0.03 m NaCl, 40 mm glycine, 9.5% 0.1 m acetic acid, pH 3.0) and absorbance was measured at 525 nm immediately. […] The DNA content in OA explants was measured by Pico-green assay (Quant-iT Pico-green dsDNA Assay Kit, Invitrogen) as per manufacturer's instructions using the same papain digest supernatant of the OA explants. Quantified sulfated GAG content in OA cartilage explants was normalized to the weight of corresponding explants and the DNA content.
Next, the effects of 15-PGDH inhibition in human OA cartilage were tested. […] Sulphated glycosaminoglycans (sGAG) were also independently quantified through measurements with the DMMB dye. […]

CCCC[S+]([O-])c1sc2nc(-c3cccs3)cc(-c3ccccc3)c2c1N (stereo not drawn) [SW033291, 2-(butylsulfinyl)-4-phenyl-6-(thiophen-2-yl)thieno[2,3-b]pyridin-3-amine]
increase of PGE2 levels (PGE2 levels): 2 fold
increase of PGD2 levels (PGE2 levels; compared with PGE2 increase): to a lesser extent
cartilage structure (safranin O staining of knee joints) (knee joints of aged mice): improved cartilage structure with increased thickness, GAG staining and smoother cartilage surface
OARSI Maximum score (knee joints of aged mice; vs control): significantly decreased
OARSI Summit score (knee joints of aged mice; vs control): significantly decreased
GAG content (sGAG, DMMB dye) [1]: significantly increased
